Results: patent publication US20250152616A1, “COMPOSITIONS FOR AND METHODS OF TREATING, PREVENTING, AND/OR MITIGATING PAIN” (Duke University, priority 2022, published 2025)

Key:
[1] = tested on: mouse model of stabilized unilateral tibial fracture; test: Static weight bearing (incapacitance meter) after tibial fracture; format: in vivo; conditions: for ipsilateral weight bearing vs pre-fracture baseline: adenosine-loaded hydrogel at fracture site
Experimental: The aim of the experiments described herein was to examine the effectiveness of local delivery of adenosine in tibial bone injury to concurrently attenuate fracture/post-surgical pain while promoting healing. All animal work was performed in compliance with the National Institutes of Health (NIH) and institutional guidelines, and the fracture surgery and biomaterial implantation protocols approved by the Institutional Animal Care and Use Committee at Duke University (Protocol Registry Number A151-20-07) were followed. C57BL/6J mice were used to study fracture nociception and the effect of local delivery of adenosine to mitigate pain and promote bone regeneration. Lepr-cre; tdTomato reporter mice were used for tracing of LepR(+) lineage cells after fracture. To determine the effect of adenosine on pain and healing, fracture surgeries were performed and treated immediately with PEGDA-6ACA-PBA macroporous hydrogels loaded with adenosine as treatment group or without adenosine as control group (Zeng Y, et al. (2020) Adv Mater. 32:e1906022). Behavioral tests for pain and limb function were assessed by weight bearing and open field locomotion. A priori power analysis was used to estimate the sample size requiring a statistical power (1−β) of 80% at the significance level of α=5%. On the basis of the power calculation, the indicated number was 8 animals per group for fracture pain and 4 animals per group for fracture healing. Ten animals per group were used to study the effect of adenosine on fracture pain, and 5 animals per group were used to examine the effect of adenosine on fracture healing. The exclusion criteria for experiments were animals that died due to the surgical procedures or shift of the intramedullary pin identified after experimental endpoint post-mortem. No randomization was used and researchers were not blinded. Measurement of adenosine in the circulation was performed by using an adenosine assay. The in vitro functional activity of DRG neurons was assessed by calcium and membrane potential imaging and the expression of proteins were assessed by histology or immunofluorescence imaging, and gene expression by RT-qPCR. Fracture healing was analyzed by microCT and histology. The study design and timeline of animal procedures (pin placement, surgery, therapeutic intervention with and without adenosine, and behavioral tests) are illustrated in FIG. 10A (weight bearing) and FIG. 10A (open field locomotion).
In all experiments, 12-week-old to 16-week-old C57BL/6J male mice (Jackson Laboratory, Bar Harbor, ME) and Lepr-cre; tdTomato reporter mice were used. The average mouse weight was 25 grams and mice were housed in groups of four to five, and kept on a 12-hr light-dark cycle with lights off at 1800 hr. All animals had ad libitum access to chow (PMI LabDiet 5001) and water. Fracture surgeries were performed as previously described (Zeng Y, et al. (2020) Adv Mater. 32:e1906022). Animals were anesthetized by isoflurane and injected with 1 mg/kg buprenorphine SR-LAB (ZooPharm, Laramie, WY). Each mouse was then placed in a supine position with the right tibia disinfected. After skin incision and reflection, proximal to the right knee, a 0.7-mm pin was inserted from the tibial plateau through the medullary cavity to stabilize the tibia, and a cut was made at the tibial midshaft to induce a transverse fracture. Bupivacaine (0.5%; Hospira, Lake Forest, IL) at ˜1 mg/kg body weight was applied at the surgical site following wound closure using 2 reflex clips (5 mm). For animals treated with control and adenosine-loaded macroporous hydrogels, macroporous hydrogels measuring approximately 5 mm (length)×3 mm (width)×1 mm (thick) containing either 1.05±0.1 mg adenosine (ADO) or no adenosine (CTL) were implanted adjacent to the fractures immediately. […] The animals were treated with the macroporous hydrogels with or without adenosine immediately following the fracture. […]

fractured tibiae = test: Safranin O histology of fractured tibiae; format: in vivo, mouse; conditions: 21 days post-fracture
Experimental: In all experiments, 12-week-old to 16-week-old C57BL/6J male mice (Jackson Laboratory, Bar Harbor, ME) and Lepr-cre; tdTomato reporter mice were used. The average mouse weight was 25 grams and mice were housed in groups of four to five, and kept on a 12-hr light-dark cycle with lights off at 1800 hr. All animals had ad libitum access to chow (PMI LabDiet 5001) and water. Fracture surgeries were performed as previously described (Zeng Y, et al. (2020) Adv Mater. 32:e1906022). Animals were anesthetized by isoflurane and injected with 1 mg/kg buprenorphine SR-LAB (ZooPharm, Laramie, WY). Each mouse was then placed in a supine position with the right tibia disinfected. After skin incision and reflection, proximal to the right knee, a 0.7-mm pin was inserted from the tibial plateau through the medullary cavity to stabilize the tibia, and a cut was made at the tibial midshaft to induce a transverse fracture. Bupivacaine (0.5%; Hospira, Lake Forest, IL) at ˜1 mg/kg body weight was applied at the surgical site following wound closure using 2 reflex clips (5 mm). For animals treated with control and adenosine-loaded macroporous hydrogels, macroporous hydrogels measuring approximately 5 mm (length)×3 mm (width)×1 mm (thick) containing either 1.05±0.1 mg adenosine (ADO) or no adenosine (CTL) were implanted adjacent to the fractures immediately. […]

Nc1ncnc2c1ncn2[C@@H]1O[C@H](CO)[C@@H](O)[C@H]1O [adenosine]
degree of decrease in weight bearing vs untreated group ([1]; 2 dpf and 4 dpf): less | percent change in weight bearing from baseline ([1]; 2 dpf and 4 dpf): significant decreases | percent change in weight bearing from baseline ([1]; 8 dpf): returned to baseline | ipsilateral weight bearing vs pre-fracture baseline ([1]; 2 days post-fracture): significantly decreased | ipsilateral weight bearing vs pre-fracture baseline ([1]; by 8 days post-fracture): returned back to the baseline | effect size of treatment on weight bearing ([1]; each timepoint, effect size r): large effect size | ipsilateral hindlimb weight bearing vs control-treated limbs ([1]; hydrogel with 1.05±0.1 mg adenosine implanted next to fracture, all post-fracture timepoints (2, 4, 8 dpf)): significantly higher | callus size vs controls (histology) (fractured tibiae): smaller callus size | cortical bone at fracture site vs controls (histology) (fractured tibiae): more cortical bone across the fracture site
